Measurements published in patent US20260200939A1, “MOLECULAR GLUE DEGRADER COMPOUNDS AND USES THEREOF” (Novartis AG, priority 2022, published 2026).

Key:
[1] = target: T1, Recombinant RNF126 (Homo sapiens, UniProt Q9BV68); assay: RNF126 Binding Assay, gel-based ABPP
T1 construct: FLAG (C); host or cells: HEK293T
Summary of the method: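 FLAG-tagged human RNF126, expressed in HEK293T and purified on anti-FLAG resin, was pretreated with DMSO or covalent ligand for 30 min at 37 °C in PBS. IA-rhodamine was then added for 1 h at RT in the dark. Probe labelling was read by SDS-PAGE in-gel fluorescence.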

[2] = tested on: HEK293T cells; assay: Quantitative TMT proteomic profiling in HEK293T cells; format: cell-based
Method: Cells were treated with either DMSO vehicle or compound (Compound 130, 1 μM) for 24 h and lysate was prepared as described above. Briefly, 25-100 μg protein from each sample was reduced, alkylated and tryptically digested overnight. Individual samples were then labeled with isobaric tags using commercially available TMTsixplex (Thermo Fisher Scientific, P/N 90061) kits, in accordance with the manufacturer's protocols. Tagged samples (20 μg per sample) were combined, dried with SpeedVac, resuspended with 300 μL 0.1% TFA in H2O, and fractionated using high pH reversed-phase peptide fractionation kits (Thermo Scientific, P/N 84868) according to manufacturer's protocol. Fractions were dried with SpeedVac, resuspended with 50 μL 0.1% FA in H2O, and analyzed by LC-MS/MS as described below.
Quantitative TMT-based proteomic analysis was performed as previously described using a Thermo Eclipse with FAIMS LC-MS/MS (King, E. A. et al. Chemoproteomics-Enabled Discovery of a Covalent Molecular Glue Degrader Targeting NF-κB. 2022.05.18.492542 Preprint at https://doi.org/10.1101/2022.05.18.492542 (2022)). […] Only peptide-to-spectrum matches that are unique assignments to a given identified protein within the total dataset are considered for protein quantitation. […]

[3] = target: T2, BRD4 short (Homo sapiens, UniProt O60885); assay: BRD4 (short) degradation assay, Western blotting; format: cell-based; conditions: HEK293T cells
T2 construct: endogenous in cells; host or cells: HEK293T
Summary of the method: (§1)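 Cell lines were grown at 37° C with 5% CO2 (HEK293T and C33A in DMEM, A549 in F-12K, 22RV1, LNCaP and Mino in RPMI-1640, K562 and MV-4-11 in IMDM, all with 10% FBS). Lysates were BCA-normalized, then SDS/PAGE Western blots were probed with target-specific antibodies and read by IR680/IR800 fluorescent secondaries on Li-Cor.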

[4] = target: T3, BRD4 long (Homo sapiens, UniProt O60885); assay: BRD4 (long) degradation assay, Western blotting; format: cell-based; conditions: HEK293T cells
T3 construct: endogenous in cells; host or cells: HEK293T
Summary of the method: as §1

[5] = target: T4, BTK (Homo sapiens, UniProt Q06187); assay: BTK degradation in MINO lymphoma cancer cells, Western blotting; format: cell-based
T4 construct: endogenous in cells; host or cells: Mino
Method: C33A cells were purchased from American Type Culture Collection (ATCC) and were cultured in Dulbecco's Modified Eagle Medium (DMEM) containing 10% (v/v) fetal bovine serum (FBS) and maintained at 37° C. with 5% CO2. 22RV1 cells were purchased from the ATCC and were cultured in RPMI-1640 Medium containing 10% (v/v) FBS and maintained at 37° C. with 5% CO2. HEK293T cells were obtained from the UC Berkeley Cell Culture Facility and were cultured in DMEM containing 10% (v/v) FBS and maintained at 37° C. with 5% CO2. K562 cells were obtained from the UC Berkeley Cell Culture Facility and were cultured in Iscove's Modified Dulbecco's Medium (IMDM) containing 10% (v/v) FBS and maintained at 37° C. with 5% CO2. MV-4-11 cells were obtained from the ATCC and were cultured in IMDM containing 10% (v/v) FBS and maintained at 37° C. with 5% CO2. A549 cells were obtained from the ATCC and were cultured in F-12K Medium containing 10% (v/v) FBS and maintained at 37° C. with 5% CO2. Mino cells were obtained from the ATCC and were cultured in RPMI-1640 Medium containing 10% (v/v) FBS and maintained at 37° C. with 5% CO2. […]
Cells were washed twice with cold PBS, scraped, and pelleted by centrifugation (700 g, 5 min, 4° C.). […] Proteome concentrations were determined using BCA assay and lysate was diluted to appropriate working concentrations. […]

T1 sequence (Q9BV68 whole entry): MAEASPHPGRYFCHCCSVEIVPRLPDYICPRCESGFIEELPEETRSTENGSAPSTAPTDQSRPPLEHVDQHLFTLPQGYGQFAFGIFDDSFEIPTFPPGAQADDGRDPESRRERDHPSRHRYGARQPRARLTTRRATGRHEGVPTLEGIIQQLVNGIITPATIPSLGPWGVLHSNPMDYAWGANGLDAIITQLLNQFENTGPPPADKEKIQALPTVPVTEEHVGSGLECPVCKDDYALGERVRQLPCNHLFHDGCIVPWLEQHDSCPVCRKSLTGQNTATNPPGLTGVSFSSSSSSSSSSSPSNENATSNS
T4 sequence (Q06187 whole entry): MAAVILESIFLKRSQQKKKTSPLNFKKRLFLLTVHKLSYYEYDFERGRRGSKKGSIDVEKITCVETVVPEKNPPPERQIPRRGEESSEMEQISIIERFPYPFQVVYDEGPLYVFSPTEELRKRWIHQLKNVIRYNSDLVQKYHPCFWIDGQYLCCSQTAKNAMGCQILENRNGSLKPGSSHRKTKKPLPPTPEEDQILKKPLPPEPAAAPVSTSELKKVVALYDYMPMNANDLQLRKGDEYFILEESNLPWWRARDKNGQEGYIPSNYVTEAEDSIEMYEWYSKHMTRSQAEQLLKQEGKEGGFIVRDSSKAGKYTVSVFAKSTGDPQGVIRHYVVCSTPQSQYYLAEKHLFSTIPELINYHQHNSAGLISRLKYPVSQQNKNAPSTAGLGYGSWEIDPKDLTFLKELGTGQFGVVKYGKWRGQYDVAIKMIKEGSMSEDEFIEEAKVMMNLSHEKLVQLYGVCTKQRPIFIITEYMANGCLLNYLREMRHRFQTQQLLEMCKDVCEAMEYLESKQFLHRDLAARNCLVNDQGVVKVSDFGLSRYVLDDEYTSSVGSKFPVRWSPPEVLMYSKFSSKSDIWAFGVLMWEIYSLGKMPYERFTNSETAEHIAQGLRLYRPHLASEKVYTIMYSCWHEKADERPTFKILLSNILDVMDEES

Row | Structure (SMILES) | binding to RNF126 (gel-based ABPP), in words [1] | selectivity of degradation by quantitative proteomic profiling [2] | degradation of BRD4 short isoform, in words [3] | degradation of BRD4 long isoform, in words [4] | degradation of BTK, in words [5]
1 | COc1ccc(C(=O)/C=C/C(=O)N2CCN(C(=O)C[C@@H]3N=C(c4ccc(Cl)cc4)c4c(sc(C)c4C)-n4c(C)nnc43)CC2)cc1 [Compound 130, (S,E)-1-(4-(2-(4-(4-chlorophenyl)-2,3,9-trimethyl-6H-thieno[3,2-f][1,2,4]triazolo[4,3-a][1,4]diazepin-6-yl)acetyl)piperazin-1-yl)-4-(4-methoxyphenyl)but-2-ene-1,4-dione] | potent binding | relatively selective degradation of BRD4 | degradation of both the long and short isoforms of BRD4 in HEK293T cells in a dose-responsive, time-dependent, and proteasome-dependent manner | degradation of both the long and short isoforms of BRD4 in HEK293T cells in a dose-responsive, time-dependent, and proteasome-dependent manner | 
2 | COc1ccc(C(=O)/C=C/C(=O)N2CCC[C@@H](n3nc(-c4ccc(Oc5ccccc5)cc4)c4c(N)ncnc43)C2)cc1 [Compound 131] | potent binding |  |  |  | degradation of BTK in MINO lymphoma cancer cells
